In US8343513B2, “Prevention of molecular weight reduction of the polymer, impurity formation and gelling in polymer compositions” (Oakwood Laboratories, LLC, priority 2003, dated 2013):
Where a SMILES comes first, the peptide text is derived from it. [ ]: non-standard residue; d: D form. The star is where a group is joined. dPhe(4-Cl) = N[C@H](Cc1ccc(Cl)cc1)C(=O)O; Nicotinoyl(6-NH2) = Nc1ccc(C(=O)*)cn1; d2Nal = N[C@H](Cc1ccc2ccccc2c1)C(=O)O; Lys(iPr) = CC(C)NCCCC[C@H](N)C(=O)O; d3Pal = N[C@H](Cc1cccnc1)C(=O)O; Picolinoyl = O=C(c1ccccn1)*; dOrn = NCCC[C@@H](N)C(=O)O

Columns and labels:
[1] = cited from earlier work
[2] = Orntide solubility and gelling in solvents and dispersed phase; assay type: physicochemical
Text: However, most of the GnRH analogs are soluble only at certain concentrations (at very low concentrations of antagonists and moderate concentrations of agonists) beyond which these analogs pose solubility and gelling problems when dissolved in these solvents.
The stability was followed for a day.

[3] = Screening of octreotide related substance formation with polymers and acid additives, 40° C. 24 and 48 hour; assay type: physicochemical; details: octreotide with polymer in DCM/methanol

SMILES | related substances formation in words [3] | other results
O=C(O)C(O)CO (stereo not shown) [glyceric acid] | – | pKa [1]: 3.25
CC(=O)N[C@H](Cc1ccc2ccccc2c1)C(=O)N[C@H](Cc1ccc(Cl)cc1)C(=O)N[C@H](Cc1cccnc1)C(=O)N[C@@H](CO)C(=O)N[C@@H](CCCCNC(=O)c1ccccn1)C(=O)N[C@H](CCCNC(=O)c1ccc(N)nc1)C(=O)N[C@@H](CC(C)C)C(=O)N[C@@H](CCCCNC(C)C)C(=O)N1CCC[C@H]1C(=O)N[C@H](C)C(N)=O [orntide] (Ac-[d2Nal][dPhe(4-Cl)][d3Pal]SK(Picolinoyl)[dOrn](Nicotinoyl(6-NH2))L[Lys(iPr)]P[dA]-NH2) | – | solubility ([2]; aqueous media, even at a pH lower than 5): < 5000 µg/mL
CCCCCCCCCCCCCCCCCC(=O)O [stearic acid] | less efficient than lactic and glycolic acids | –
O=C(O)CO [glycolic acid] | prevented the related substances formation | –
CC(=O)O [glacial acetic acid] | less efficient than lactic and glycolic acids | –
CC(=O)N[C@H](Cc1ccc2ccccc2c1)C(=O)N[C@H](Cc1ccc(Cl)cc1)C(=O)N[C@H](Cc1cccnc1)C(=O)N[C@@H](CO)C(=O)N[C@@H](CCCCNC(=O)c1ccccn1)C(=O)N[C@H](CCCNC(=O)c1ccc(N)nc1)C(=O)N[C@@H](CC(C)C)C(=O)N[C@@H](CCCCNC(C)C)C(=O)N1CCC[C@H]1C(=O)N[C@H](C)C(N)=O [PPL-ORN-9902] (Ac-[d2Nal][dPhe(4-Cl)][d3Pal]SK(Picolinoyl)[dOrn](Nicotinoyl(6-NH2))L[Lys(iPr)]P[dA]-NH2) | – | time to gel ([2]; 84 mg orntide acetate, 100 mg glacial acetic acid, 130 mg methanol, 1.28 g methylene chloride, warmed to 40° C.): ≤ 30 min
CC(O)C(=O)O (stereo not shown) [lactic acid] | reduced the related substances and made comparable to the control | –
